Source: the NIST ThermoML archive (doi:10.1021/acs.jced.8b00692)
± gives the expanded uncertainty stated by the source.

Assay: xn = mol fraction of the nth substance listed
Conditions: 102 kPa, Liquid; for viscosity: Concentric cylinders viscometry; for speed of sound: Frequency=3 MHz, Single path-length method; for mass density: Vibrating tube method

CCCCCC1CCCCC1 [pentylcyclohexane] + CCCCCCCCCCCCCCCC
Conditions | mass density [kg/m3] | speed of sound [m/s] | viscosity [mPa·s]
293.15 K, x1 = 0.2004 | 777.53 ± 0.81 | 1354.6 ± 0.7 | 3.1 ± 0.02
293.15 K, x1 = 0.4 | 782.39 ± 0.81 | 1351.9 ± 0.7 | 2.74 ± 0.02
293.15 K, x1 = 0.4999 | 785.18 ± 0.81 | 1350.6 ± 0.8 | 2.56 ± 0.02
293.15 K, x1 = 0.5999 | 788.23 ± 0.81 | 1349.4 ± 0.8 | 2.38 ± 0.02
293.15 K, x1 = 0.8006 | 795.35 ± 0.81 | 1347.2 ± 0.9 | 2.03 ± 0.02
293.15 K, x1 = 1 | 804.11 ± 0.82 | 1345.9 ± 1 | 1.7 ± 0.02
303.15 K, x1 = 0.2004 | 770.57 ± 0.81 | 1317.2 ± 0.7 | 2.49 ± 0.02
303.15 K, x1 = 0.4 | 775.39 ± 0.81 | 1314.4 ± 0.7 | 2.22 ± 0.02
303.15 K, x1 = 0.4999 | 778.15 ± 0.81 | 1313 ± 0.8 | 2.08 ± 0.02
303.15 K, x1 = 0.5999 | 781.16 ± 0.81 | 1311.6 ± 0.8 | 1.95 ± 0.02
303.15 K, x1 = 0.8006 | 788.18 ± 0.82 | 1309 ± 0.9 | 1.68 ± 0.02
303.15 K, x1 = 1 | 796.8 ± 0.82 | 1306.4 ± 1 | 1.42 ± 0.01
313.15 K, x1 = 0.2004 | 763.62 ± 0.81 | 1280.5 ± 0.7 | 2.04 ± 0.02
313.15 K, x1 = 0.4 | 768.39 ± 0.81 | 1277.6 ± 0.7 | 1.83 ± 0.01
313.15 K, x1 = 0.4999 | 771.11 ± 0.81 | 1276 ± 0.8 | 1.73 ± 0.01
313.15 K, x1 = 0.5999 | 774.09 ± 0.81 | 1274.5 ± 0.8 | 1.61 ± 0.01
313.15 K, x1 = 0.8006 | 781 ± 0.82 | 1271.3 ± 0.9 | 1.41 ± 0.01
313.15 K, x1 = 1 | 789.47 ± 0.82 | 1267.8 ± 1 | 1.21 ± 0.01
323.15 K, x1 = 0.2004 | 756.66 ± 0.81 | 1244.5 ± 0.7 | 1.7 ± 0.01
323.15 K, x1 = 0.4 | 761.38 ± 0.81 | 1241.4 ± 0.7 | 1.54 ± 0.01
323.15 K, x1 = 0.4999 | 764.07 ± 0.81 | 1239.7 ± 0.8 | 1.46 ± 0.01
323.15 K, x1 = 0.5999 | 766.99 ± 0.81 | 1237.9 ± 0.8 | 1.37 ± 0.01
323.15 K, x1 = 0.8006 | 773.8 ± 0.82 | 1234.3 ± 0.9 | 1.21 ± 0.01
323.15 K, x1 = 1 | 782.12 ± 0.82 | 1230.1 ± 1 | 1.04 ± 0.01
333.15 K, x1 = 0.2004 | 749.7 ± 0.81 | 1209.3 ± 0.7 | 1.44 ± 0.01
333.15 K, x1 = 0.4 | 754.35 ± 0.81 | 1206 ± 0.7 | 1.31 ± 0.01
333.15 K, x1 = 0.4999 | 757 ± 0.81 | 1204.2 ± 0.8 | 1.24 ± 0.01
333.15 K, x1 = 0.5999 | 759.88 ± 0.81 | 1202.3 ± 0.8 | 1.18 ± 0.01
333.15 K, x1 = 0.8006 | 766.57 ± 0.82 | 1198 ± 0.9 | 1.03 ± 0.01
333.15 K, x1 = 1 | 774.74 ± 0.82 | 1193.4 ± 1 | 0.895 ± 0.012
343.15 K, x1 = 0.2004 | 742.8 ± 0.8 | – | 1.24 ± 0.01
343.15 K, x1 = 0.4 | 747.4 ± 0.8 | – | 1.14 ± 0.01
343.15 K, x1 = 0.4999 | 749.9 ± 0.8 | – | 1.08 ± 0.01
343.15 K, x1 = 0.5999 | 752.9 ± 0.8 | – | 1.03 ± 0.01
343.15 K, x1 = 0.8006 | 759.4 ± 0.8 | – | 0.916 ± 0.012
343.15 K, x1 = 1 | 767.3 ± 0.8 | – | 0.799 ± 0.012
353.15 K, x1 = 0.2004 | 735.8 ± 0.8 | – | 1.07 ± 0.01
353.15 K, x1 = 0.4 | 740.3 ± 0.8 | – | 0.985 ± 0.012
353.15 K, x1 = 0.4999 | 742.8 ± 0.8 | – | 0.937 ± 0.012
353.15 K, x1 = 0.5999 | 745.7 ± 0.8 | – | 0.903 ± 0.012
353.15 K, x1 = 0.8006 | 752.2 ± 0.8 | – | 0.809 ± 0.012
353.15 K, x1 = 1 | 759.9 ± 0.8 | – | 0.709 ± 0.012
363.15 K, x1 = 0.2004 | 728.7 ± 0.8 | – | 0.955 ± 0.012
363.15 K, x1 = 0.4 | 733.2 ± 0.8 | – | 0.884 ± 0.012
363.15 K, x1 = 0.4999 | 735.6 ± 0.8 | – | 0.843 ± 0.012
363.15 K, x1 = 0.5999 | 738.5 ± 0.8 | – | 0.805 ± 0.012
363.15 K, x1 = 0.8006 | 744.8 ± 0.8 | – | 0.724 ± 0.012
363.15 K, x1 = 1 | 752.4 ± 0.8 | – | 0.637 ± 0.012
